{"source": "patent US11395821B2", "about": "“Treatment of EGFR-driven cancer with fewer side effects” (G1 Therapeutics, Inc., priority 2017, dated 2022)", "key": {"[1]": {"details": "cited from earlier work"}, "[2]": {"details": "cited from earlier work", "remark": "listed apart in the source"}, "[3]": {"system": "EGFR^ex20ins PDX NSCLC tumor fragments (LU0387, CrownBio)", "assay": "Example 5: Compound IV +/- osimertinib in EGFR ex20ins PDX model", "format": "in vivo, BALB/c nude mice", "details": "once daily oral gavage, 17 days; Compound IV 100 mg/kg or osimertinib 10 mg/kg alone", "description": "(§1) The x-axis is days from initiation measured in time and the y-axis is mean tumor volume measured in mm^3.\nTumors continued to be measured until they reached tumor burden (>3000 mm3)."}, "[4]": {"system": "EGFR^ex19del/T790M PDX NSCLC tumor fragments (TM00219, Jackson Labs)", "assay": "Example 4: Compound IV +/- osimertinib in EGFR ex19del/T790M PDX model", "format": "in vivo, NSG mice", "details": "once daily oral gavage 28 days; Compound IV 100 mg/kg or osimertinib 2.5 mg/kg alone", "description": "as §1\nThe x-axis is days from initiation measured in time and the y-axis is median tumor volume measured in mm^3.\nAfter 28 days tumors continued to be measured until they reached tumor burden (>2000 mm^3)."}, "[5]": {"details": "human, in vivo; cited from earlier work"}, "[6]": {"details": "cited from earlier work", "remark": "listed apart in the source"}, "[7]": {"details": "cited from earlier work; for Grade ≥3 decrease in neutrophil count: laboratory findings"}, "[8]": {"details": "cited from earlier work", "remark": "listed apart in the source"}, "[9]": {"details": "in vivo; cited from earlier work"}, "[10]": {"details": "cited from earlier work", "remark": "listed apart in the source"}, "[11]": {"details": "all grades, GILOTRIF n=229, pemetrexed/cisplatin n=111"}}, "note": "Like-named read-outs stand apart in the source and are kept apart here.", "data": [{"smiles": "C#Cc1cccc(Nc2ncnc3cc(OCCOC)c(OCCOC)cc23)c1.Cl", "note": "[TARCEVA, erlotinib]", "values": [{"measurement": "overall incidence of ILD", "setting": "[1]; approximately 32,000 patients, all studies", "result": "approximately 1.1%"}, {"measurement": "discontinued therapy due to adverse reactions", "setting": "[1]; human, in vivo", "result": 14.3, "unit": "%"}, {"measurement": "dose interruptions or reductions due to adverse reactions", "setting": "[1]; human, in vivo", "result": 37, "unit": "%"}, {"measurement": "dose modification due to asthenia", "setting": "[1]; human, in vivo", "result": 3.6, "unit": "%"}, {"measurement": "dose modification due to diarrhea", "setting": "[1]; human, in vivo", "result": 10, "unit": "%"}, {"measurement": "dose modification due to rash", "setting": "[1]; human, in vivo", "result": 13, "unit": "%"}, {"measurement": "liver function test abnormalities (ALT, AST, bilirubin)", "setting": "[1]; human, in vivo", "result": "Grade 2 and Grade 3 liver function test abnormalities"}, {"measurement": "median time to onset of diarrhea", "setting": "[1]; human, in vivo", "result": 32, "unit": "days"}, {"measurement": "median time to onset of rash", "setting": "[1]; human, in vivo", "result": 15, "unit": "days"}, {"measurement": "most frequent Grade 3-4 adverse reactions", "setting": "[1]; human, in vivo", "result": "rash and diarrhea"}, {"measurement": "most frequent adverse reactions: diarrhea, asthenia, rash, cough, dyspnea, decreased appetite", "setting": "[1]; human, in vivo", "result": "≥ 30", "unit": "%"}, {"measurement": "median onset of ILD symptoms after initiating therapy", "setting": "[1]; patients with ILD", "result": 39, "unit": "days"}, {"measurement": "onset of ILD symptoms after initiating therapy (span)", "setting": "[1]; patients with ILD", "result": "between 5 days to more than 9 months"}]}, {"smiles": "COc1cc2ncnc(Nc3ccc(F)c(Cl)c3)c2cc1OCCCN1CCOCC1", "note": "[IRESSA, gefitinib]", "values": [{"measurement": "skin reactions", "setting": "[2]; across NSCLC", "result": 47, "unit": "%"}, {"measurement": "incidence of fatal hepatotoxicity", "setting": "[2]; human, in vivo", "result": 0.04, "unit": "%"}]}, {"smiles": "C=CC(=O)Nc1cc(Nc2nccc(-c3cn(C)c4ccccc34)n2)c(OC)cc1N(C)CCN(C)C", "note": "[osimertinib, reference compound]", "values": [{"measurement": "tumor growth vs vehicle, single agent", "setting": "[3]", "result": "did not cause an effect"}, {"measurement": "tumor growth vs vehicle, single agent", "setting": "[4]", "result": "modest tumor growth inhibition"}, {"measurement": "nail toxicity", "setting": "[5]", "result": 22, "unit": "%"}, {"measurement": "patients experiencing Grade 3 neutropenia", "setting": "[5]", "result": "up to 2.2%"}]}, {"smiles": "CN(C)C/C=C/C(=O)Nc1cc2c(Nc3ccc(F)c(Cl)c3)ncnc2cc1O[C@H]1CCOC1", "note": "[GILOTRIF, afatinib]", "values": [{"measurement": "fatal liver test abnormalities", "setting": "[6]; 3865 patients", "result": 0.18, "unit": "%"}, {"measurement": "liver test abnormalities", "setting": "[6]; 3865 patients", "result": 10.1, "unit": "%"}, {"measurement": "diarrhea", "setting": "[6]; [11]", "result": 96, "unit": "%"}, {"measurement": "dry skin", "setting": "[6]; [11]", "result": 31, "unit": "%"}, {"measurement": "paronychia", "setting": "[6]; [11]", "result": 58, "unit": "%"}, {"measurement": "pruritus", "setting": "[6]; [11]", "result": 21, "unit": "%"}, {"measurement": "rash/acneiform dermatitis", "setting": "[6]; [11]", "result": 90, "unit": "%"}, {"measurement": "stomatitis", "setting": "[6]; [11]", "result": 71, "unit": "%"}, {"measurement": "decreased appetite", "setting": "[6]; human, in vivo", "result": 29, "unit": "%"}, {"measurement": "fatal pneumonia", "setting": "[6]; human, in vivo", "result": 0.43, "unit": "%"}, {"measurement": "fatal pulmonary toxicity/interstitial lung disease (ILD)-like adverse reactions", "setting": "[6]; human, in vivo", "result": 1.3, "unit": "%"}, {"measurement": "fatal sepsis", "setting": "[6]; human, in vivo", "result": 0.43, "unit": "%"}, {"measurement": "nausea", "setting": "[6]; human, in vivo", "result": 25, "unit": "%"}, {"measurement": "serious adverse reaction: diarrhea", "setting": "[6]; human, in vivo", "result": 6.6, "unit": "%"}, {"measurement": "serious adverse reaction: dyspnea", "setting": "[6]; human, in vivo", "result": 1.7, "unit": "%"}, {"measurement": "serious adverse reaction: fatigue", "setting": "[6]; human, in vivo", "result": 1.7, "unit": "%"}, {"measurement": "serious adverse reaction: hypokalemia", "setting": "[6]; human, in vivo", "result": 1.7, "unit": "%"}, {"measurement": "serious adverse reaction: vomiting", "setting": "[6]; human, in vivo", "result": 4.8, "unit": "%"}, {"measurement": "serious adverse reactions", "setting": "[6]; human, in vivo", "result": 29, "unit": "%"}, {"measurement": "ventricular dysfunction (all <Grade 3)", "setting": "[6]; human, in vivo", "result": 2.2, "unit": "%"}, {"measurement": "vomiting", "setting": "[6]; human, in vivo", "result": 23, "unit": "%"}]}, {"smiles": "CCN1CCN(Cc2ccc(Nc3ncc(F)c(-c4cc(F)c5nc(C)n(C(C)C)c5c4)n3)nc2)CC1", "note": "[abemaciclib]", "values": [{"measurement": "Grade ≥3 decrease in neutrophil count", "setting": "[7]; MONARCH 1", "result": 27, "unit": "%"}, {"measurement": "Grade 3 diarrhea", "setting": "[7]; alone, MONARCH 1", "result": 20, "unit": "%"}, {"measurement": "diarrhea", "setting": "[7]; alone, MONARCH 1", "result": 90, "unit": "%"}, {"measurement": "neutropenia", "setting": "[7]; alone, MONARCH 1", "result": 37, "unit": "%"}, {"measurement": "alanine aminotransferase (ALT) increased", "setting": "[7]; human, in vivo", "result": 41, "unit": "%"}, {"measurement": "aspartate aminotransferase (AST) increased", "setting": "[7]; human, in vivo", "result": 37, "unit": "%"}, {"measurement": "dose reductions due to diarrhea of any grade", "setting": "[7]; human, in vivo", "result": 19, "unit": "%"}, {"measurement": "dose reductions due to neutropenia of any grade", "setting": "[7]; human, in vivo", "result": 10, "unit": "%"}, {"measurement": "permanent treatment discontinuation due to an adverse event", "setting": "[7]; human, in vivo", "result": 9, "unit": "%"}, {"measurement": "Grade 3 diarrhea", "setting": "[7]; plus fulvestrant, MONARCH 2", "result": 13, "unit": "%"}, {"measurement": "diarrhea", "setting": "[7]; plus fulvestrant, MONARCH 2", "result": 86, "unit": "%"}, {"measurement": "neutropenia", "setting": "[7]; plus fulvestrant, MONARCH 2", "result": 46, "unit": "%"}, {"measurement": "Grade ≥3 decrease in neutrophil count", "setting": "[7]; plus fulvestrant, MONARCH 2", "result": 32, "unit": "%"}, {"measurement": "dose reductions due to an adverse reaction", "setting": "[7]; plus fulvestrant", "result": 43, "unit": "%"}]}, {"smiles": "CC(=O)c1c(C)c2cnc(Nc3ccc(N4CCNCC4)cn3)nc2n(C2CCCC2)c1=O", "note": "[palbociclib]", "values": [{"measurement": "incidence of neutropenia", "setting": "[8]; Study 1 (PALOMA-2)", "result": 80, "unit": "%"}, {"measurement": "incidence of neutropenia", "setting": "[8]; Study 2 (PALOMA-3)", "result": 83, "unit": "%"}, {"measurement": "complete drug discontinuation", "setting": "[8]; human, in vivo", "result": 8, "unit": "%"}, {"measurement": "median duration of Grade ≥3 neutropenia", "setting": "[8]; human, in vivo", "result": 7, "unit": "days"}, {"measurement": "median time to first episode of any grade neutropenia", "setting": "[8]; human, in vivo", "result": 15, "unit": "days"}, {"measurement": "patients requiring a dose interruption", "setting": "[8]; human, in vivo", "result": 71, "unit": "%"}, {"measurement": "patients requiring a dose reduction", "setting": "[8]; human, in vivo", "result": 36, "unit": "%"}, {"measurement": "Grade ≥3 decrease in neutrophil counts", "setting": "[8]; patients in PALOMA-2 and PALOMA-3", "result": 66, "unit": "%"}, {"measurement": "increased alanine transferase", "setting": "[8]; patients treated", "result": 40, "unit": "%"}, {"measurement": "increased aspartate aminotransferase (AST)", "setting": "[8]; patients treated", "result": 48, "unit": "%"}, {"measurement": "T½", "setting": "[9]", "result": "roughly 27 hours"}]}, {"smiles": "CN(C)C(=O)c1cc2cnc(Nc3ccc(N4CCNCC4)cn3)nc2n1C1CCCC1", "note": "[ribociclib]", "values": [{"measurement": "Grade 3 or 4 increases in ALT", "setting": "[10]; KISQALI treatment arms", "result": 10, "unit": "%"}, {"measurement": "Grade 3 or 4 increases in AST", "setting": "[10]; KISQALI treatment arms", "result": 7, "unit": "%"}, {"measurement": "patients with at least one average QTcF interval of more than 480 msec after baseline", "setting": "[10]; MONALEESA-2 study", "result": 3.3, "unit": "%"}, {"measurement": "alopecia", "setting": "[10]; adverse reaction", "result": 33, "unit": "%"}, {"measurement": "back pain", "setting": "[10]; adverse reaction", "result": 20, "unit": "%"}, {"measurement": "constipation", "setting": "[10]; adverse reaction", "result": 25, "unit": "%"}, {"measurement": "diarrhea", "setting": "[10]; adverse reaction", "result": 35, "unit": "%"}, {"measurement": "fatigue", "setting": "[10]; adverse reaction", "result": 37, "unit": "%"}, {"measurement": "headache", "setting": "[10]; adverse reaction", "result": 22, "unit": "%"}, {"measurement": "leukopenia", "setting": "[10]; adverse reaction", "result": 33, "unit": "%"}, {"measurement": "neutropenia", "setting": "[10]; adverse reaction", "result": 75, "unit": "%"}, {"measurement": "vomiting", "setting": "[10]; adverse reaction", "result": 29, "unit": "%"}, {"measurement": "Grade 3/4 decrease in neutrophil count", "setting": "[10]; based on laboratory findings", "result": 60, "unit": "%"}, {"measurement": "treatment discontinuation due to increased ALT", "setting": "[10]; first mention", "result": 4, "unit": "%"}, {"measurement": "QT interval", "setting": "[10]; human, in vivo", "result": "prolong the QT interval in a concentration-dependent manner"}, {"measurement": "dose reductions due to adverse reactions", "setting": "[10]; human, in vivo", "result": 45, "unit": "%"}, {"measurement": "permanent discontinuations due to ARs", "setting": "[10]; human, in vivo", "result": 7, "unit": "%"}, {"measurement": "treatment discontinuation due to vomiting", "setting": "[10]; human, in vivo", "result": 2, "unit": "%"}, {"measurement": "treatment discontinuation due to increased ALT", "setting": "[10]; second mention", "result": 3, "unit": "%"}]}]}
